From US12691101B2, “Compound and method for preventing or treating of respiratory diseases comprising the same as an active ingredient” (YONSEI UNIVERSITY, UNIVERSITY - INDUSTRY FOUNDATION (UIF), priority 2019, dated 2026)
Entries after “also recorded” stand apart in the source; their conditions may differ.

What was measured:
[1] = molecular target: T1, human wild-type (WT)-pendrin (Homo sapiens, UniProt O43511); test: Pendrin-mediated Cl^−/HCO3^− exchange activity in CHO-K1 cells; type: cell-based; settings: for inhibition of pendrin Cl^−/HCO3^− exchange activity: CHO-K1 cells, pretreated 10 minutes
T1 construct: expressed in transfected cells
T1 sequence (O43511 1-780): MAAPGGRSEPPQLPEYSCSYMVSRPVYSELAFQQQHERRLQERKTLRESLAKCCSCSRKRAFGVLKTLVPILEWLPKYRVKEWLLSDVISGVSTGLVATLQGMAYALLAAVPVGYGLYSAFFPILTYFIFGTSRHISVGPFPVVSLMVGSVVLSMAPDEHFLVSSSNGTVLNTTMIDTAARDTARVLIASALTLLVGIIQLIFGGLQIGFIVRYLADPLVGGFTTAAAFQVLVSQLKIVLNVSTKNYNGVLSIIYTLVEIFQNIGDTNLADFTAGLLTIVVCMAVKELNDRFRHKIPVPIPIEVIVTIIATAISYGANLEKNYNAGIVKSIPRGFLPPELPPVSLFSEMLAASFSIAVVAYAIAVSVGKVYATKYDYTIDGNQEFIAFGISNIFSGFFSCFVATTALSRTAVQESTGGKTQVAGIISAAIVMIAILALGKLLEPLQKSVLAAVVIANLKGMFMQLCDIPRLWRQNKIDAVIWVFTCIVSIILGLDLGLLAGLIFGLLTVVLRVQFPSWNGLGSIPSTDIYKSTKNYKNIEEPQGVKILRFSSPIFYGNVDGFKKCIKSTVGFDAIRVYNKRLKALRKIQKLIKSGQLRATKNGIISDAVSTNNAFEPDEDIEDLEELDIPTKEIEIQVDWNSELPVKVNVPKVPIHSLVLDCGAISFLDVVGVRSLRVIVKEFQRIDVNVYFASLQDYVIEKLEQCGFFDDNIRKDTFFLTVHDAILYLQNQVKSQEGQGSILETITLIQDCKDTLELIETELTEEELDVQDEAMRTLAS
Procedure: For measurement of Cl^−/HCO3^− exchange activity, intracellular pH (pHi) was measured in WT-pendrin expressing CHO-K1 and HNE cells using pH sensor SNARF5-AM (Molecular Probes). The cells were treated with 5 μM SNARF5-AM for 30 minutes, and then were equipped in a perfusion chamber on the stage of a reverse fluorescence microscope (Nikon, Tokyo, Japan) equipped with a cooled charge-coupled device camera (Zyla sCMOS), image acquisition and analysis software (Meta Imaging Series 7.7). The cells were perfused with a HCO3^− buffer solution containing 120 NaCl, 5 KCl, 1 MgCl2, 1 CaCl2, 10 D-glucose, 5 HEPES, and 25 NaHCO3 (pH 7.4) (mM). To measure the Cl^−/HCO3^− exchange activity, the HCO3^− buffer solution was changed to Cl^−-free HCO3^− buffer solution. When external Cl^−-free HCO3^− buffer solution is applied, the outflow of Cl^− and inflow of HCO3^− are increased by pendrin. To maintain the pH of the HCO3^− buffer solution, the solution was continuously gas treated with 95% O2 and 5% CO2. SNARF5 fluorescence was recorded at 515±10 nm of the excitation wavelength and 640±10 nm of the emission wavelength, and intracellular pH calibration was performed with a solution including 145 mM KCl, 10 mM HEPES and […] nigericin having a calibrated pH to 6.2-7.6.
When the CHO-K1 cells overexpressing WT-pendrin and iodine sensitive YFP are treated with a high concentration Cl^− solution, Cl^− moves to the cells and HCO3^− moves outside of the cells, and this change induces acidification of intracellular pH with reduction of YFP fluorescence.

[2] = molecular target: T1, human wild-type (WT)-pendrin; test: Pendrin-mediated Cl^−/OH^− exchange activity in CHO-K1 cells; type: cell-based
Procedure: For measurement of Cl^−/OH^− exchange activity, intracellular pH (pHi) was measured in WT-pendrin expressing CHO-K1 and HNE cells using pH sensor SNARF5-AM (Molecular Probes). The cells were treated with 5 μM SNARF5-AM for 30 minutes, and then were equipped in a perfusion chamber on the stage of a reverse fluorescence microscope (Nikon, Tokyo, Japan) equipped with a cooled charge-coupled device camera (Zyla sCMOS), image acquisition and analysis software (Meta Imaging Series 7.7). To measure the Cl^−/OH^− exchange activity, HEPES buffer solution was changed to CV-free HEPES buffer solution for generation of an Cl^− gradient driving Cl^− outflow and OH^− inflow of cytosol by pendrin.

PDS mRNA = test: Real-time PCR of PDS mRNA in IL-4-treated HNE cells; type: cell-based, human; settings: IL-4-treated HNE cells (F10: 120 hours after treatment)
Procedure: (§1) The total messenger RNA (mRNA) was extracted using TRIzol reagent (Invitrogen, Carlsbad, CA, USA), and was reverse-transcribed using a random hexamer primer, an oligo(dT) primer and SuperScript® III reverse transcriptase (Invitrogen). Quantitative real-time PCR was performed using StepOnePlus Real-Time PCR system (Applied Biosystems, Foster City, CA, USA) and Thunderbird SYBR qPCR mix (Tokyobo, Osaka, Japan). Thermal cycling conditions included the initial stage at 95° C. for 5 minutes, and subsequent 40 cycles at 95° C. for 10 seconds, at 55° C. for 20 seconds and at 72° C. for 10 minutes.

MUC5AC mRNA = test: Real-time PCR of MUC5AC mRNA in IL-4-treated HNE cells; type: cell-based, human; settings: IL-4-treated HNE cells (F10: 120 hours after treatment)
Procedure: (A) The MUC5AC mRNA expression level was determined at the indicated time after treatment of F56 ([…]) in IL-4 (10 ng/ml)-treated HNE cells (mean±S.E., n=4). (B) Periodic acid-Schiff (PAS) staining showing goblet cell hyperplasia of IL-4 and IL-13 (10 ng/ml)-treated HNE cells in presence or absence of F56 ([…]) at Day 7. (C) Measurement of the total volume of ASL and fluid meniscus in HNE cells expressing wild-type (wt) or mutant (mt) PDS. The HNE cells were treated with IL-4 (10 ng/ml, 48 hours) in presence or absence of […]. (D) Representative image of a transwell insert having normal HNE cells. Arrows indicate the fluid meniscus of HNE cells treated with IL-4 (10 ng/ml, 48 hours) in presence or absence of […]. (E) Representative protein expression result of pendrin in IL-4 and IL-13-treated HNE cells. […]
The MUC5AC mRNA expression level was determined in 120 hours after F10 treatment by real-time quantitative PCR in IL-4-treated HNE cells.
as §1, with “Thermal cycling conditions included the initial stage at 95° C. for 5 minutes, and subsequent 40 cycles at 95° C. for 10 seconds, at 55° C. for 20 seconds and at 72° C. for 10 minutes.” left out

Row | IC50 ([1]; FIG. 4(a), read-out: 50% inhibition of Cl^−/HCO3^− exchange activity) [µM] | Structure (SMILES) | inhibition of pendrin Cl^−/HCO3^− exchange activity [1] | inhibition of pendrin Cl^−/OH^− exchange activity [2] | PDS mRNA expression level (PDS mRNA) | mRNA expression of IL-4-induced MUC5AC (MUC5AC mRNA)
1 |  | CC(C)(C)c1ccc(C2=NC(=Cc3ccc[nH]3)C(=O)O2)cc1 [F10, 4-((1H-pyrrol-2-yl)methylene)-2-(4-(tert-butyl)phenyl)oxazol-5 (4H)-one] | strongly inhibit | strongly inhibit | did not show any effect | reduced the mRNA expression of MUC5AC in a concentration-dependent manner
2 | ~10 | CC(C)(C)c1ccc(C2=NC(=Cc3cccs3)C(=O)O2)cc1 [F56, 2-(4-(tert-butyl)phenyl)-4-(thiophen-2-ylmethylene)oxazol-5(4H)-one] | significantly inhibited; also recorded: strongly inhibited | strongly inhibited | without changes of the mRNA expression level | significantly reduced
